Laboratory results reported in the supplement of paper PMC10733146.

Assays:
Assay in all cases: viability relative to DMSO control (fraction); higher = less drug effect (more viable cells)
Details in all cases: 48 h
[1] = compound: Cc1cc(Nc2cc(N3CCN(C)CC3)nc(Sc3ccc(NC(=O)C4CC4)cc3)n2)n[nH]1 [Tozasertib]
Summary of the method: (§1)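 Viability is given as CellTiter-Glo luminescence relative to the median of 16 inner DMSO wells. Fresh or cryopreserved primary mononuclear tumour cells from blood, bone marrow (both Ficoll-isolated) or processed lymph node were plated at 4 × 10^4 cells per well in 384-well plates against five pre-plated compound concentrations, one well each. Incubation lasted 48 h at 37 °C and 5% CO2 in RPMI-1640 with penicillin/streptomycin, L-glutamine and human serum.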

[2] = compound: CC#CC(=O)N1CC[C@@H](n2c(=O)n(-c3ccc(Oc4ccccc4)cc3)c3c(N)ncnc32)C1 [ONO-4059]
Summary of the method: as §1

[3] = compound: CC[C@]1(O)C[C@H]2CN(CCc3c([nH]c4ccccc34)[C@@](C(=O)OC)(c3cc4c(cc3OC)N(C=O)[C@H]3[C@@](O)(C(=O)OC)[C@H](OC(C)=O)[C@]5(CC)C=CCN6CC[C@]43[C@@H]65)C2)C1 [Vincristine]
Summary of the method: as §1

[4] = compound: CC(C)(C)OC(=O)Nc1ccc(-c2cc(C(=O)NCCCCCCC(=O)NO)no2)cc1
Summary of the method: as §1

[5] = compound: O=C(NCC1(c2nc(-c3ccccc3)cs2)CCOCC1)c1cccc(-c2noc(C(F)(F)F)n2)c1 [TMP269]
Summary of the method: as §1

[6] = compound: Nc1nc(Cl)nc2c1ncn2[C@H]1C[C@H](O)[C@@H](CO)O1 [Cladribine]
Summary of the method: as §1

[7] = compound: CC[C@H](NC(=O)[C@H](C)NC)C(=O)N1C[C@@H](O)C[C@H]1Cc1c(-c2[nH]c3cc(F)ccc3c2C[C@@H]2C[C@H](O)CN2C(=O)[C@H](CC)NC(=O)[C@H](C)NC)[nH]c2cc(F)ccc12 [Birinapant]
Summary of the method: as §1

[8] = compound: CC(=O)[C@]1(O)Cc2c(O)c3c(c(O)c2[C@@H](O[C@H]2C[C@H](N)[C@H](O)[C@H](C)O2)C1)C(=O)c1ccccc1C3=O [Idarubicin]
Summary of the method: as §1

[9] = compound: COC1=CC(c2cc3ccccc3[nH]2)=N/C1=C\c1[nH]c(C)cc1C [Obatoclax mesylate]
Summary of the method: as §1

[10] = compound: CCOc1cc(C(=O)N2CCC(N3CCN(C)CC3)CC2)ccc1Nc1ncc2c(n1)N(C1CCCC1)c1ccccc1C(=O)N2C [ERK5-IN-1]
Summary of the method: as §1

[11] = compound: COc1cc(OC)c(/C=C/S(=O)(=O)Cc2ccc(OC)c(NCC(=O)O)c2)c(OC)c1 [Rigosertib]
Summary of the method: as §1

[12] = compound: CC(C)C[C@H](NC(=O)[C@H](CCc1ccccc1)NC(=O)CN1CCOCC1)C(=O)N[C@@H](Cc1ccccc1)C(=O)N[C@@H](CC(C)C)C(=O)[C@@]1(C)CO1 [Carfilzomib]
Summary of the method: as §1

[13] = compound: CC(C)(C)c1cc(NC(=O)Nc2ccc(-c3cn4c(n3)sc3cc(OCCN5CCOCC5)ccc34)cc2)no1 [Quizartinib]
Summary of the method: as §1

[14] = compound: Cc1ccc(NC(=O)c2ccc(CN3CCN(C)CC3)cc2)cc1Nc1nccc(-c2cccnc2)n1 [Imatinib]
Summary of the method: as §1

primary CLL patient cells (S031)
viability ([1]; 0.024 µM): 0.906
viability ([1]; 0.12 µM): 0.797
viability ([1]; 0.6 µM): 0.757
viability ([1]; 3 µM): 0.559
viability ([1]; 15 µM): 0.284
viability ([2]; 0.0016 µM): 0.831
viability ([2]; 0.008 µM): 0.829
viability ([2]; 0.04 µM): 0.719
viability ([2]; 0.2 µM): 0.749
viability ([2]; 1 µM): 0.72
viability ([3]; 0.016 µM): 0.363
viability ([3]; 0.08 µM): 0.246
viability ([3]; 0.4 µM): 0.153
viability ([3]; 2 µM): 0.131
viability ([3]; 10 µM): 0.0855
viability ([4]; 0.024 µM): 0.987
viability ([4]; 0.12 µM): 0.97
viability ([4]; 0.6 µM): 0.867
viability ([4]; 3 µM): 0.141
viability ([4]; 15 µM): 0.0256
viability ([5]; 0.024 µM): 0.914
viability ([5]; 0.12 µM): 0.904
viability ([5]; 0.6 µM): 0.989
viability ([5]; 3 µM): 0.939
viability ([5]; 15 µM): 0.992
viability ([6]; 0.024 µM): 0.442
viability ([6]; 0.12 µM): 0.115
viability ([6]; 0.6 µM): 0.0501
viability ([6]; 3 µM): 0.0402
viability ([6]; 15 µM): 0.031
viability ([7]; 0.0008 µM): 0.788
viability ([7]; 0.004 µM): 0.923
viability ([7]; 0.02 µM): 0.919
viability ([7]; 0.1 µM): 0.857
viability ([7]; 0.5 µM): 0.984
viability ([8]; 0.024 µM): 0.346
viability ([8]; 0.12 µM): 0.162
viability ([8]; 0.6 µM): 0.0377
viability ([8]; 3 µM): 0.0133
viability ([8]; 15 µM): 0.00892
viability ([9]; 0.024 µM): 0.88
viability ([9]; 0.12 µM): 0.863
viability ([9]; 0.6 µM): 0.738
viability ([9]; 3 µM): 0.384
viability ([9]; 15 µM): 0.0738
viability ([10]; 0.024 µM): 0.949
viability ([10]; 0.12 µM): 0.925
viability ([10]; 0.6 µM): 0.839
viability ([10]; 3 µM): 0.651
viability ([10]; 15 µM): 0.223
viability ([11]; 0.008 µM): 1.01
viability ([11]; 0.04 µM): 0.997
viability ([11]; 0.2 µM): 1.03
viability ([11]; 1 µM): 0.945
viability ([11]; 5 µM): 0.297
viability ([12]; 0.00016 µM): 1
viability ([12]; 0.0008 µM): 0.135
viability ([12]; 0.004 µM): 0.0182
viability ([12]; 0.02 µM): 0.0155
viability ([12]; 0.1 µM): 0.0219
viability ([13]; 0.016 µM): 1.03
viability ([13]; 0.08 µM): 1.15
viability ([13]; 0.4 µM): 1.04
viability ([13]; 2 µM): 1.13
viability ([13]; 10 µM): 1.02

primary AML patient cells (S055)
viability ([1]; 15 µM): 0.603
viability ([14]; 0.08 µM): 1.07
viability ([14]; 10 µM): 1.16
viability ([3]; 0.016 µM): 0.958
viability ([3]; 0.08 µM): 0.795
viability ([3]; 0.4 µM): 0.452
viability ([3]; 2 µM): 0.374
viability ([3]; 10 µM): 0.312
viability ([4]; 0.024 µM): 0.958
viability ([4]; 0.12 µM): 0.956
viability ([4]; 0.6 µM): 0.829
viability ([4]; 3 µM): 0.468
viability ([4]; 15 µM): 0.0614
viability ([5]; 0.024 µM): 0.986
viability ([5]; 0.12 µM): 1.02
viability ([5]; 0.6 µM): 0.982
viability ([5]; 3 µM): 0.996
viability ([5]; 15 µM): 0.922
viability ([6]; 0.024 µM): 0.784
viability ([6]; 0.12 µM): 0.542
viability ([6]; 0.6 µM): 0.455
viability ([6]; 3 µM): 0.44
viability ([6]; 15 µM): 0.44
viability ([8]; 0.024 µM): 0.992
viability ([8]; 0.12 µM): 0.712
viability ([8]; 0.6 µM): 0.0486
viability ([8]; 3 µM): 0.0426
viability ([8]; 15 µM): 0.0227
viability ([10]; 0.024 µM): 0.929
viability ([10]; 0.12 µM): 0.945
viability ([10]; 0.6 µM): 0.914
viability ([10]; 3 µM): 0.818
viability ([10]; 15 µM): 0.615
viability ([11]; 0.008 µM): 0.972
viability ([11]; 0.04 µM): 1.02
viability ([11]; 0.2 µM): 0.96
viability ([11]; 1 µM): 0.996
viability ([11]; 5 µM): 0.975
viability ([12]; 0.00016 µM): 0.943
viability ([12]; 0.0008 µM): 0.927
viability ([12]; 0.004 µM): 0.169
viability ([12]; 0.02 µM): 0.0277
viability ([12]; 0.1 µM): 0.0221
viability ([13]; 0.016 µM): 1.08
viability ([13]; 0.08 µM): 1.05
viability ([13]; 0.4 µM): 1.07
viability ([13]; 2 µM): 1.07
viability ([13]; 10 µM): 1.02
